# Assay results from patent US11479546B2, “Antimalarial hexahydropyrimidine analogues” (UCB Biopharma SRL, priority 2018, dated 2022).
# System: Plasmodium falciparum 3D7
# Assay: P. falciparum 3D7 asexual blood stage assay, Assay Procedure Version 2 (SYBR green readout)
# Type: cell-based
# Conditions: Plasmodium falciparum, 3D7, Erythrocyte, 72 h, Version 2 of the assay procedure (asterisk *); 72 h incubation in infected erythrocytes; 50,000 nM to 15 nM
# Experimental: Asexual Blood Stage Assay
# The assay used to measure the effect of test compounds on a bloodstream stage of Plasmodium falciparum 3D7 strain employs SYBR green as the readout. This is a dye that binds to double stranded deoxyribonucleic acid (DNA) with a resulting increase in fluorescence, allowing detection of P. falciparum DNA in infected erythrocytes, and thereby providing a measure of parasite growth and propagation.
# P. falciparum Culture Maintenance
# Erythrocytes (A+blood) were prepared for both parasite culture and assay by washing 4 times with incomplete media (15.9 g RPMI 1640 (25 mM HEPES, L-glutamine), 1 g NaHCO3, 2 g glucose, 400 μL gentacin (500 mg/mL), 2 mL hypoxanthine solution (13.6 g/L in 0.1M NaOH pH 7.3) in 1 litre of media). The cells were centrifuged at 1800 g for 5 minutes, before decanting the supernatant and re-suspending in fresh incomplete media. On the final wash, the cells were re-suspended in complete media (incomplete media with 5 g/L AlbumaxII), and centrifuged at 1800 g for 3 minutes. This cell sediment was treated as 100% haematocrit.
# P. falciparum 3D7 was cultured in erythrocytes at 5% haematocrit in complete media at 37° C. (1% O2, 3% CO2, balance N2). Cultures were split on a weekly basis to achieve a 1% parasitaemia in erythrocites at 5% haematocrit in fresh media. Culture media is replaced by fresh media every other day (2 times during the week).
# [formula] where A=% inhibition at bottom; B=% inhibition at top; C=EC50; D=slope; x=inhibitor concentration; and y=% inhibition. […] Assay Procedure—Version 2
# On day 1, test compounds were added to assay plates using Echo dispensing technology ([…] and 20 points titration). 50 nL of each compound dilution was added to 50 μL of culture (5% haematocrit, 0.5% parasitaemia) and incubated for 72 h at 37° C. (1% O2, 3% CO2, balance N2). Final concentrations of test compounds ranged from 50,000 nM to 15 nM, in […].
# On day 4, 10 μL SYBR green (Invitrogen S7563 supplied as 10,000× concentrate in DMSO) pre-diluted to 3× concentrate with Lysis buffer (20 mM Tris pH 7.9, 5% EDTA, 0.16% w/v, 1.6% TX100 v/v) was added to the cultures and incubated in the dark, overnight, at room temperature.
# On day 5, fluorescent signal was measured using a BioTek plate reader (excitation 485 nm, emission 528 nm). All data were processed using IDBS ActivityBase. Raw data were converted into percent inhibition through linear regression by setting the high inhibition control (mefloquine) as 100% and the no inhibition control (DMSO) as 0%. Quality control criteria for passing plates were as follows: Z′>0.5, S:B>3, % CV(no inhibition control)<15. The formula used to calculate Z′ is:
# [formula] where μ denotes the mean; σ denotes the standard deviation; p denotes the positive control; and n denotes the negative control.
# All EC50 curve fitting was undertaken using the following bi-phasic two site dose response using XLfit model 300 (IDBS):
# [formula] where A=100 minus the top of the upper curve 1 and the bottom of lower curve; B=Hill slope; log(C)=IC50 concentration at lower site; log(D)=IC50 concentration at upper site; x=inhibitor concentration; and y=% inhibition.
row,IC50 [nM],Compound
1,3860,"Cc1ccc(Nc2cccc([C@]3(C)CC(=O)N([C@@H]4C[C@H]5CC[C@@H](C4)O5)C(=N)N3)c2Cl)cn1 (mixture of isomers) [Example 157, (6S)-6-{2-Chloro-3-[(6-methyl-pyridin-3-yl)amino]phenyl}-2-imino-6-methyl-3-[(1SR,5RS)-8-oxabicyclo[3.2.1]octan-3-yl]-hexahydropyrimidin-4-one]"
2,22,"C[C@@H]1C[C@H](N2C(=N)N[C@](C)(c3cccc(Nc4ccc(C5CC5)nc4)c3Cl)CC2=O)CCO1 (relative stereo) [Example 198, (6S)-6-{2-Chloro-3-[(6-cyclo-propylpyridin-3-yl)amino]-phenyl}-2-imino-6-methyl-3-[(2R*,4R*)-2-methyltetrahydro-pyran-4-yl]hexahydropyrimidin-4-one]"
3,309,"C[C@H]1C[C@@H](N2C(=N)N[C@](C)(c3cccc(Nc4ccc(C5CC5)nc4)c3Cl)CC2=O)CCO1 (relative stereo) [Example 199, (6S)-6-{2-Chloro-3-[(6-cyclo-propylpyridin-3-yl)amino]-phenyl}-2-imino-6-methyl-3-[(2S*,4S*)-2-methyltetrahydro-pyran-4-yl]hexahydropyrimidin-4-one]"
4,45,"C[C@@H]1C[C@H](N2C(=N)N[C@](C)(c3cccc(Nc4ccc(C5CC5)nn4)c3Cl)CC2=O)CCO1 (relative stereo) [Example 200, (6S)-6-{2-Chloro-3-[(6-cyclo-propylpyridazin-3-yl)amino]-phenyl}-2-imino-6-methyl-3-[(2R*,4R*)-2-methyltetrahydro-pyran-4-yl]hexahydropyrimidin-4-one]"
5,102,"C[C@@H]1C[C@H](N2C(=N)N[C@](C)(c3cccc(Nc4ccc(OCC(F)(F)F)nc4)c3Cl)CC2=O)CCO1 (relative stereo) [Example 201, (6S)-6-(2-Chloro-3-{[6-(2,2,2-trifluoroethoxy)pyridin-3-yl]-amino}phenyl)-2-imino-6-methyl-3-[(2R*,4R*)-2-methyl-tetrahydropyran-4-yl]-hexahydropyrimidin-4-one]"
6,112,"C[C@@H]1C[C@H](N2C(=N)N[C@](C)(c3cccc(Nc4ccc(OCC(F)(F)F)nn4)c3Cl)CC2=O)CCO1 (relative stereo) [Example 202, (6S)-6-(2-Chloro-3-{[6-(2,2,2-trifluoroethoxy)pyridazin-3-yl]-amino}phenyl)-2-imino-6-methyl-3-[(2R*,4R*)-2-methyl-tetrahydropyran-4-yl]-hexahydropyrimidin-4-one]"
7,57,"C[C@@H]1C[C@H](N2C(=N)N[C@](C)(c3cccc(Nc4ccc(OCC(F)F)nc4)c3Cl)CC2=O)CCO1 (relative stereo) [Example 203, (6S)-6-(2-Chloro-3-{[6-(2,2-difluoroethoxy)pyridin-3-yl]-amino}phenyl)-2-imino-6-methyl-3-[(2R*,4R*)-2-methyl-tetrahydropyran-4-yl]-hexahydropyrimidin-4-one]"

# Further lines, the compound ahead of its results:
row,Compound,IC50 [nM]
1,"C[C@@]1(c2cccc(Nc3ccc(OC(F)F)nc3)c2Cl)CC(=O)N([C@@H]2C[C@H]3CC[C@@H](C2)O3)C(=N)N1 (mixture of isomers) [Example 156, (6S)-6-(2-Chloro-3-{[6-(difluoromethoxy)pyridin-3-yl]-amino}phenyl)-2-imino-6-methyl-3-[(1SR,5RS)-8-oxa-bicyclo[3.2.1]octan-3-yl]-hexahydropyrimidin-4-one]",2980
2,"C[C@@H]1C[C@H](N2C(=N)N[C@](C)(c3cccc(Nc4ccc(Cl)cc4)c3Cl)CC2=O)CCO1 (relative stereo) [Example 155, (6S)-6-[2-Chloro-3-(4-chloro-anilino)phenyl]-2-imino-6-methyl-3-[(2R*,4R*)-2-methyl-tetrahydropyran-4-yl]-hexahydropyrimidin-4-one]",71
3,"Cc1ccc(Nc2cccc([C@]3(C)CC(=O)N([C@@H]4CCO[C@H](C)C4)C(=N)N3)c2Cl)cn1 (single isomer, unassigned) [Example 135]",21
4,"Cc1ccc(Nc2cccc([C@]3(C)CC(=O)N([C@H]4CCO[C@@H](C)C4)C(=N)N3)c2Cl)cn1 (single isomer, unassigned) [Example 136]",249
5,"CC1(C)CC(N2C(=N)N[C@](C)(c3cccc(Nc4ccc(C(C)(C)C)nc4)c3Cl)CC2=O)CCO1 (single isomer, unassigned) [Example 148, (6S)-6-{3-[(6-tert-Butylpyridin-3-yl)amino]-2-chlorophenyl}-3-[(4S*)-2,2-dimethyltetrahydro-pyran-4-yl]-2-imino-6-methyl-hexahydropyrimidin-4-one]",368
6,"CC1(C)CC(N2C(=N)N[C@](C)(c3cccc(Nc4cnc(C(C)(C)C)cn4)c3Cl)CC2=O)CCO1 (single isomer, unassigned) [Example 149, (6S)-6-{3-[(5-tert-Butylpyrazin-2-yl)amino]-2-chlorophenyl}-3-[(4S*)-2,2-dimethyltetrahydro-pyran-4-yl]-2-imino-6-methyl-hexahydropyrimidin-4-one]",1380
7,"CC1(C)CC(N2C(=N)N[C@](C)(c3cccc(Nc4ccc(C5CC5)nn4)c3Cl)CC2=O)CCO1 (single isomer, unassigned) [Example 150, (6S)-6-{2-Chloro-3-[(6-cyclo-propylpyridazin-3-yl)amino]-phenyl}-3-[(4S*)-2,2-dimethyl-tetrahydropyran-4-yl]-2-imino-6-methylhexahydropyrimidin-4-one]",622
8,"CC1(C)CC(N2C(=N)N[C@](C)(c3cccc(Nc4cnc(C5CC5)cn4)c3Cl)CC2=O)CCO1 (single isomer, unassigned) [Example 151, (6S)-6-{2-Chloro-3-[(5-cyclo-propylpyrazin-2-yl)amino]-phenyl}-3-[(4S*)-2,2-dimethyl-tetrahydropyran-4-yl]-2-imino-6-methylhexahydropyrimidin-4-one]",707

# Same assay, conditions: Version 2 of the assay procedure (asterisk *); 72 h incubation in infected erythrocytes; 50,000 nM to 15 nM
row,IC50 [nM],Compound
1,996,"CC1(C)CC(N2C(=N)N[C@](C)(c3cccc(Nc4ccc(OC(F)F)nc4)c3Cl)CC2=O)CCO1 (single isomer, unassigned) [Example 143, (6S)-6-(2-Chloro-3-{[6-(difluoromethoxy)pyridin-3-yl]-amino}phenyl)-3-[(4R*)-2,2-dimethyltetrahydropyran-4-yl]-2-imino-6-methylhexahydro-pyrimidin-4-one]"
2,493,"CC1(C)CC(N2C(=N)N[C@](C)(c3cccc(Nc4ccc(OC(F)F)nc4)c3Cl)CC2=O)CCO1 (single isomer, unassigned) [Example 144, (6S)-6-(2-Chloro-3-{[6-(difluoromethoxy)pyridin-3-yl]-amino}phenyl)-3-[(4S*)-2,2-dimethyltetrahydropyran-4-yl]-2-imino-6-methylhexahydro-pyrimidin-4-one]"
3,1260,"Cc1ccc(Nc2cccc([C@]3(C)CC(=O)N(C4CCOC(C)(C)C4)C(=N)N3)c2Cl)cn1 (single isomer, unassigned) [Example 145, (6S)-6-{2-Chloro-3-[(6-methyl-pyridin-3-yl)amino]phenyl}-3-[(4R*)-2,2-dimethyltetrahydro-pyran-4-yl]-2-imino-6-methyl-hexahydropyrimidin-4-one]"
4,425,"Cc1ccc(Nc2cccc([C@]3(C)CC(=O)N(C4CCOC(C)(C)C4)C(=N)N3)c2Cl)cn1 (single isomer, unassigned) [Example 146, (6S)-6-{2-Chloro-3-[(6-methyl-pyridin-3-yl)amino]phenyl}-3-[(4S*)-2,2-dimethyltetrahydro-pyran-4-yl]-2-imino-6-methyl-hexahydropyrimidin-4-one]"
5,287,"CC1(C)CC(N2C(=N)N[C@](C)(c3cccc(Nc4ccc(C5CC5)nc4)c3Cl)CC2=O)CCO1 (single isomer, unassigned) [Example 147, (6S)-6-{2-Chloro-3-[(6-cyclo-propylpyridin-3-yl)amino]-phenyl}-3-[(4S*)-2,2-dimethyl-tetrahydropyran-4-yl]-2-imino-6-methylhexahydropyrimidin-4-one]"
